From US20240018146A1, “COMPOSITIONS AND METHODS OF USING THE SAME FOR TREATMENT OF NEURODEGENERATIVE AND MITOCHONDRIAL DISEASE” (MITOKININ, INC., priority 2020, published 2024)
Read-outs that look alike come from different tables or passages of the source.

Key:
[1] = test system: HeLa MKYP cells; assay: Human mitophagy assay (HeLa mKeima assay, FACS); assay type: cell-based
Protocol: Briefly, HeLa MKYP cells were plated at 10,000 cells/well in 96 well plates along with compounds at various concentrations. Following 16 hrs of incubation, cells were treated with 1 uM FCCP/oligomycin for 6 hours, then analyzed via FACS for the presence of mitochondria in lysosomes (as determined by an emissions spectrum shift from the pH-sensitive mtKeima tag).
Briefly, HeLa cells expressing a mitophagy indicator (mtKeima) protein were treated with […] of FCCP and Oligomycin followed by the specified dose of compound, then analyzed by FACS to quantify the percentage of cells undergoing mitophagy.

[2] = test system: HeLa MKYP cells; assay: Cell death measured by DAPI staining, with 1 μM FCCP/oligomycin or no toxin (no FO); assay type: cell-based; details: for Max cell death at 25 μM compound, 1 uM FO (%) / Cell death at 25 μM (no FO) (%): 25 μM compound
Protocol: EP-0035985, EP-0037821, EP-0038098, and EP-0038099 in the presence of 1 μM FCCP/oligomycin or with no toxin (no FO) for 6 hrs. H2O2 treatment was performed as a control for cell death as measured by DAPI staining.
EP-0035985, EP-0038461, EP-0038463, and EP-0038503 in the presence of 1 μM FCCP/oligomycin or with no toxin (no FO) for 6.5 hrs. H2O2 treatment was performed as a control for cell death as measured by DAPI staining.
EP-0035985, EP-0038504, EP-0038508, and EP-0038521 in the presence of 1 μM FCCP/oligomycin or with no toxin (no FO) for 6.5 hrs. H2O2 treatment was performed as a control for cell death as measured by DAPI staining.
EP-0035985, EP-0038461, EP-0038463, EP-0038503, EP-0038504, EP-0038508, and EP-0038521 in the presence of 1 μM FCCP/oligomycin or with no toxin (no FO) for 6.5 hrs. H2O2 treatment was performed as a control for cell death as measured by DAPI staining.

[3] = Homo sapiens, HeLa, read-out: Mitophagy induction EC50
[4] = read-out: Mitophagy induction EC50
[5] = Homo sapiens, HeLa, HeLa mKeima assay, read-out: Mitophagy EC50 (HeLa mKeima assay)

SMILES | EC50 [1, 3] [µM] | Highest safe dose (cytotoxicity; no FO; safe means DAPI+ <20%) [2] [µM] | Max % death with 1 μM FO [2] [%] | EC50 [1, 4] [µM] | EC50 [1, 5] [µM] | Max cell death at 25 μM compound, 1 uM FO (%) [2] [%] | Cell death at 25 μM (no FO) (%) [2] [%]
COC1(C)CN(C2COc3ccccc3C2Nc2ncnc3[nH]c(C(F)(F)F)cc23)C1 (single isomer, unassigned) [EP-0041300] | 4.35 | 25.0 | 11.1 |  |  |  | 
FC1COCCC1[C@H]1COc2ccccc2[C@@H]1Nc1ncnc2[nH]c(C(F)(F)F)cc12 (single isomer, unassigned) [EP-0041322] |  | 25.0 | 11.0 | > 25 |  |  | 
FC1COCCC1[C@H]1COc2ccccc2[C@@H]1Nc1ncnc2[nH]c(C(F)(F)F)cc12 (single isomer, unassigned) [EP-0041323] |  | 25.0 | 9.2 | 11 |  |  | 
FC1COCCC1[C@H]1COc2ccccc2[C@@H]1Nc1ncnc2[nH]c(C(F)(F)F)cc12 (single isomer, unassigned) [EP-0041324] |  | 25.0 | 10.4 | 12.3 |  |  | 
FC1COCCC1[C@H]1COc2ccccc2[C@@H]1Nc1ncnc2[nH]c(C(F)(F)F)cc12 (single isomer, unassigned) [EP-0041325] |  | 25.0 | 5.5 | 18.8 |  |  | 
CC(C)(O)C1CN([C@H]2COc3ccccc3[C@@H]2Nc2ncnc3[nH]c(C(F)(F)F)cc23)C1 (single isomer, unassigned) [EP-0041490] | > 25 | 25.0 | 3.4 |  |  |  | 
COC[C@@H]1CCCN1[C@H]1COc2ccccc2[C@@H]1Nc1ncnc2[nH]c(C(F)(F)F)cc12 (single isomer, unassigned) [EP-0041491] | 10.2 | 25.0 | 3.7 |  |  |  | 
COC[C@H]1CCCN1[C@H]1COc2ccccc2[C@@H]1Nc1ncnc2[nH]c(C(F)(F)F)cc12 (single isomer, unassigned) [EP-0041492] | 1.78 | 25.0 | 8.3 |  |  |  | 
C[S@](=N)(=O)C1CN([C@H]2COc3ccccc3[C@@H]2Nc2ncnc3[nH]c(C(F)(F)F)cc23)C1 (single isomer, unassigned) [EP-0041495] |  | 25.0 | 2.9 | 2.52 |  |  | 
C[S@](=N)(=O)C1CN([C@H]2COc3ccccc3[C@@H]2Nc2ncnc3[nH]c(C(F)(F)F)cc23)C1 (single isomer, unassigned) [EP-0041497] |  | 25.0 | 2.6 | 22 |  |  | 
C[S@@](=N)(=O)C1CN(C2COc3ccccc3C2Nc2ncnc3[nH]c(C(F)(F)F)cc23)C1 (single isomer, unassigned) [EP-0041498] | > 25 | 25.0 | 3.7 |  |  |  | 
COC[C@@H]1CCN(C2COc3ccccc3C2Nc2ncnc3[nH]c(C4CC4)cc23)C1 (single isomer, unassigned) [EP-0041515] |  | 25.0 | 5.6 | 5.06 |  |  | 
FC(F)(F)c1cc2c(N[C@H]3c4ccccc4OC[C@@H]3N3CCC4(COC4)C3)ncnc2[nH]1 (single isomer, unassigned) [EP-0041516] | 3.24 | 25.0 | 11.8 |  |  |  | 
OC[C@H]1CN([C@H]2COc3ccccc3[C@@H]2Nc2ncnc3[nH]c(C(F)(F)F)cc23)CCO1 (single isomer, unassigned) [EP-0041558] |  | 25.0 | 10.6 | 1.42 |  |  | 
OC[C@H]1CN([C@H]2COc3ccccc3[C@@H]2Nc2ncnc3[nH]c(C(F)(F)F)cc23)CCO1 (single isomer, unassigned) [EP-0041559] |  | 25.0 | 3.7 | 10.3 |  |  | 
OC[C@@H]1CN([C@H]2COc3ccccc3[C@@H]2Nc2ncnc3[nH]c(C(F)(F)F)cc23)CCO1 (single isomer, unassigned) [EP-0041585] | 16.1 | 25.0 | 6.6 |  |  |  | 
OC[C@@H]1CN([C@H]2COc3ccccc3[C@@H]2Nc2ncnc3[nH]c(C(F)(F)F)cc23)CCO1 (single isomer, unassigned) [EP-0041586] |  | 25.0 | 10.7 | 9.59 |  |  | 
c1ccc2c(c1)OCC(N1CC3CCOC3C1)C2Nc1ncnc2[nH]c(C3CC3)cc12 (single isomer, unassigned) [EP-0041667] |  | 25.0 | 3.1 | > 25 |  |  | 
c1ccc2c(c1)OCC(N1CC3CCOC3C1)C2Nc1ncnc2[nH]c(C3CC3)cc12 (single isomer, unassigned) [EP-0041669] |  | 25.0 | 2.5 | > 25 |  |  | 
Fc1ccc2c(c1)CC[C@@H](N1CCOCC1)[C@@H]2Nc1ncnc2[nH]c(C3CC3)cc12 [EP-0039747] | 9.31 | 25.0 | 24.4 |  | 9.31 | 24.4 | 12.9
N#Cc1cn([C@@H]2CCc3ccccc3[C@@H]2Nc2ncnc3[nH]c(C(F)(F)F)cc23)cn1 [EP-0039748] | 8.07 | 25.0 | 6.5 |  |  |  | 
FC(F)(F)c1cc2c(N[C@H]3c4ccccc4C[C@@H]3N3C[C@H]4COC[C@H]4C3)ncnc2[nH]1 [EP-0039754] | > 25 | 25.0 | 17.7 |  |  |  | 
c1ccc2c(c1)C[C@H](N1C[C@H]3COC[C@H]3C1)[C@H]2Nc1ncnc2[nH]c(C3CC3)cc12 [EP-0040075] | > 25 | 25.0 | 6.5 |  |  |  | 
FC(F)(F)c1cc2c(N[C@H]3c4ccccc4OC[C@@H]3N3CCOCC3)ncnc2[nH]1 [EP-0040078] | 1.9 | 25.0 | 18.5 |  | 1.77 | 18 | 5.92
FC(F)(F)c1cc2c(N[C@H]3c4ccccc4OC[C@H]3N3CCOCC3)ncnc2[nH]1 [EP-0040084] | 15.6 | 25.0 | 3.7 |  |  |  | 
OC[C@@H]1CCCN1[C@H]1CCc2ccccc2[C@@H]1Nc1ncnc2[nH]c(C3CC3)cc12 [EP-0040085] | > 25 | 8.3 | 38.1 |  |  |  | 
FC(F)(F)c1cc2c(N[C@H]3c4ccccc4CC[C@@H]3N3CCCOCC3)ncnc2[nH]1 [EP-0040139] | 3.66 | 25.0 | 8.5 |  |  |  | 
c1ccc2c(c1)OC[C@@H](N1CCOCC1)[C@H]2Nc1ncnc2[nH]c(C3CC3)cc12 [EP-0040140] | 8.71 | 25.0 | 11.1 |  |  |  | 
